Reference: patent US20210300921A1, “EP4 INHIBITORS AND SYNTHESIS THEREOF” (Arrys Therapeutics, Inc., priority 2018, published 2021)

Key:
Type in all cases: in vivo, BALB/c mice
[1] = tested on: 4T1 mouse breast cancer model; assay: Antitumor activity in the 4T1 mouse breast cancer model, additional experiment with anti-PD1 (7 mice per cohort); conditions: FIG. 6
Protocol: (§1) The antitumor activity of Compound X as a single agent and combined with a mouse anti-PD1 antibody was evaluated in the 4T1 mouse breast cancer model grown in BALB/c mice in an additional experiment. Mice were inoculated subcutaneously in the right flank with 3×10^5 tumor cells. When tumors reached an average size of 97 mm^3 dosing was initiated. The dosing regimens in the 4 separate cohorts comprising 7 mice each are as follows: […]

[2] = tested on: 4T1 mouse breast cancer model; assay: Antitumor activity in the 4T1 mouse breast cancer model, Compound X with or without anti-CTLA4; conditions: for tumor growth kinetics during the period of dosing: FIG. 3
Protocol: The antitumor activity of Compound X (the compound as described in Example 15, above) as a single agent and combined with a mouse anti-CTLA4 antibody was evaluated in the 4T1 mouse breast cancer model grown in BALB/c mice. Mice were inoculated subcutaneously in the right flank with 3×10^5 tumor cells. When tumors reached an average size of 100 mm^3 (7 days after tumor cell inoculation) dosing was initiated.

[3] = tested on: CT-26 mouse colon adenocarcinoma model; assay: Antitumor activity in the CT-26 mouse colon adenocarcinoma model, additional experiment (7 mice per cohort); conditions: FIG. 5
Protocol: as §1, with “CT-26” for “4T1”, “colon adenocarcinoma” for “breast cancer”, “5×10^5” for “3×10^5”, “91” for “97”

CT-26 tumors = assay: Immune cell composition of CT-26 tumors by flow cytometry after 7 days of dosing; conditions: for percentage of dendritic cells (CD45, CD11c positive) in tumors: FIG. 7b; for regulatory T cells (CD45, CD4, FoxP3, CD25 positive) in tumors: versus vehicle, FIG. 7a; for percentage of activated T cells (CD45, CD3, CD8) by CD25 expression in tumors: FIG. 7c
Protocol: The immune cell composition of Compound X (the compound as described in Example 15, above) as a single agent and combined with a mouse anti-PD1 antibody was evaluated in the CT-26 mouse colon adenocarcinoma model grown in BALB/c mice. Mice were inoculated subcutaneously in the right flank with 5×10^5 tumor cells. When tumors reached an average size of 85 mm^3 dosing was initiated. The dosing regimens in the 4 separate cohorts comprising 10 mice each are listed as follows:
After dosing animals for 7 days, tumors were resected and used to prepare single cell suspensions. Live cells representing tumor and immune cells were stained with cocktails of antibodies targeting multiple immune cell markers (anti-CD45, anti-CD3, anti-CD4, anti-CD8, anti-CD25, anti-FoxP3, anti-PD-1, anti-CD11c) conjugated to different fluorescent tags. The stained cells were fixed in 4% paraformaldehyde and quantified using a multi-color flow cytometer (Fortessa). The data was analyzed with FloJo software.

[4] = tested on: CT-26 mouse colon adenocarcinoma model; assay: Antitumor activity in the CT-26 mouse colon adenocarcinoma model, Compound X with or without anti-PD-1 (10 mice per cohort); conditions: for tumor growth kinetics during the treatment period: versus single agent anti-PD-1; for tumor growth kinetics during the period of dosing: versus vehicle
Protocol: The antitumor activity of Compound X as a single agent and combined with a mouse anti-PD-1 antibody was evaluated in the CT-26 mouse colon adenocarcinoma model grown in BALB/c mice. Mice were inoculated subcutaneously in the right flank with 5×10^5 tumor cells. When tumors reached an average size of 71 mm^3 (6 days after tumor cell inoculation) dosing was initiated. The dosing regimens in the 8 separate cohorts comprising 10 mice each are as follows: […]

[5] = Compound X 15 mg/kg BID in combination with anti-CTLA4
[6] = single agent: Compound X 15 mg/kg BID x7 days po or anti-PD-1 10 mg/kg Q3D x3 ip

**Q.** Which “tumor growth kinetics during the period of dosing” value ([1]; Compound X 15 mg/kg BID combined with anti-PD1 10 mg/kg BIW ip) does the source give for C[C@H](NC(=O)c1cc(Cl)cnc1Oc1cccc(F)c1)c1ccc(C(=O)O)cc1 [Compound X] here?
**A.** Its value is “lower than mice treated with either single agent”.

**Q.** What about the “tumor growth kinetics during the period of dosing” value ([1]; Compound X 15 mg/kg BID po, single agent) of the same compound?
**A.** The value was “less than that of the vehicle group and anti-PD1 when dosed alone”.

**Q.** And the “mice still alive 47 days after tumor inoculation” value [2, 5]?
**A.** The value was 7 of 10.

**Q.** What about the “mice still alive at the end of the study 55 days after tumor inoculation” value [2, 5] of the same compound?
**A.** Its value is 3 of 10.

**Q.** What about the “survival rate after treatment was discontinued” value ([2]; Compound X 15 mg/kg BID in combination with anti-CTLA4, FIG. 4) of the same compound?
**A.** The value was “improved survival rate relative to either single agent alone”.

**Q.** And the “tumor growth kinetics during the period of dosing” value ([2]; Compound X and anti-CTLA4 combined, versus either agent alone)?
**A.** Its value is “decreased relative to either agent when dosed alone”.

**Q.** And the “mice alive 47 days after tumor inoculation” value ([2]; single agent alone)?
**A.** The value was “none”.

**Q.** What about the “tumor growth kinetics during the period of dosing” value ([2]; single agent: Compound X 15 mg/kg BID or anti-CTLA4, versus vehicle) of the same compound?
**A.** Its value is “decreased relative to the vehicle treated mice”.

**Q.** And the “tumor growth kinetics during the period of dosing” value ([3]; Compound X 15 mg/kg BID combined with anti-PD1 10 mg/kg BIW ip, versus single agents)?
**A.** The value was “lower than mice treated with either single agent”.

**Q.** And the “tumor growth kinetics during the period of dosing” value ([3]; single agent: Compound X 15 mg/kg BID po or anti-PD1 10 mg/kg BIW ip, versus vehicle)?
**A.** Its value is “less than that of the vehicle group”.

**Q.** And the “percentage of dendritic cells (CD45, CD11c positive) in tumors” value (CT-26 tumors; Compound X 15 mg/kg BID dosed with anti-PD-1 10 mg/kg Q3D)?
**A.** The value was “increased percentage”.

**Q.** What about the “regulatory T cells (CD45, CD4, FoxP3, CD25 positive) in tumors” value (CT-26 tumors; combination of Compound X 15 mg/kg BID and anti-PD-1 10 mg/kg Q3D) of the same compound?
**A.** Its value is “significant decrease”.

**Q.** What about the “percentage of activated T cells (CD45, CD3, CD8) by CD25 expression in tumors” value (CT-26 tumors; combination of Compound X 15 mg/kg BID with anti-PD-1 10 mg/kg Q3D) of the same compound?
**A.** Its value is “increased percentage”.

**Q.** What about the “percentage of activated T cells (CD45, CD3, CD8) by CD25 expression in tumors” value (CT-26 tumors; either agent dosed alone) of the same compound?
**A.** The value was “did not”.

**Q.** What about the “percentage of dendritic cells (CD45, CD11c positive) in tumors” value (CT-26 tumors; [6]) of the same compound?
**A.** Its value is “increased percentage”.

**Q.** And the “regulatory T cells (CD45, CD4, FoxP3, CD25 positive) in tumors” value (CT-26 tumors; [6])?
**A.** Its value is “significant decrease”.

**Q.** What about the “mice still alive 99 days after tumor inoculation” value ([4]; Compound X 15 mg/kg BID in combination with anti-PD-1) of the same compound?
**A.** Its value is 5 out of 10.

**Q.** What about the “growth kinetics after treatment was discontinued” value ([4]; Compound X 15 mg/kg BID in combination with anti-PD-1, FIG. 1) of the same compound?
**A.** The value was “decreased growth kinetics relative to anti-PD-1”.

**Q.** And the “survival after treatment was discontinued” value ([4]; Compound X 15 mg/kg BID in combination with anti-PD-1, FIG. 2)?
**A.** Its value is “improved survival”.

**Q.** What about the “tumor free mice 99 days after tumor inoculation” value ([4]; Compound X 15 mg/kg BID in combination with anti-PD-1, of 10 mice) of the same compound?
**A.** Its value is 4.

**Q.** What about the “tumor growth kinetics during the treatment period” value ([4]; Compound X 15 mg/kg BID p.o. combined with anti-PD-1 10 mg/kg i.p.) of the same compound?
**A.** The value was “not notably different mice treated with single agent anti-PD-1”.

**Q.** What about the “tumor growth kinetics during the period of dosing” value ([4]; Compound X 15 mg/kg BID p.o., single agent, FIG. 1) of the same compound?
**A.** The value was “not notably different from the vehicle treated mice”.

**Q.** What about the “tumor growth kinetics during the treatment period” value ([4]; Compound X 15 mg/kg QD p.o. combined with anti-PD-1 10 mg/kg i.p.) of the same compound?
**A.** The value was “not notably different mice treated with single agent anti-PD-1”.

**Q.** And the “tumor growth kinetics during the period of dosing” value ([4]; Compound X 15 mg/kg QD p.o., single agent, FIG. 1)?
**A.** The value was “not notably different from the vehicle treated mice”.

**Q.** What about the “mice still alive and tumor free 99 days after tumor inoculation” value ([4]; single agent) of the same compound?
**A.** The value was 1 out of 10.
